System: MV-4-11 cells
Test: Gene expression microarray analysis (Affymetrix PrimeView) and GSEA
Type: cell-based, human
Parameters: RFU PODN (11730768_x_at) / Fold change /veh PODN (11730768_x_at) / RFU LINC00158 (11744669_a_at) / Fold change /veh LINC00158 (11744669_a_at) / RFU DUSP10 (11751237_a_at) / Fold change /veh DUSP10 (11751237_a_at) / RFU ID3 (11757404_x_at) / Fold change /veh ID3 (11757404_x_at) / RFU PLEKHG5 (11737974_s_at) / Fold change /veh PLEKHG5 (11737974_s_at) / RFU LRRC4B (11730491_at) / Fold change /veh LRRC4B (11730491_at) / RFU GIMAP4 (11747438_a_at) / Fold change /veh GIMAP4 (11747438_a_at) / RFU KRT8 (11758183_x_at) / Fold change /veh KRT8 (11758183_x_at) / RFU CNN1 (11734310_a_at) / Fold change /veh CNN1 (11734310_a_at) / RFU VPS37D (11726825_at) / Fold change /veh VPS37D (11726825_at) / RFU C10orf10 (11716522_x_at) / Fold change /veh C10orf10 (11716522_x_at) / RFU KIR2DL2 /// KIR2DL4 /// KIR2DL5A /// KIR2DL5B /// KIR2DS1 /// KIR2DS2 /// KIR2DS3 /// KIR2DS4 /// KIR3DL3 /// KIR3DL3 /// KIR3DS1 (11738374_at) / Fold change /veh KIR2DL2 /// KIR2DL4 /// KIR2DL5A /// KIR2DL5B /// KIR2DS1 /// KIR2DS2 /// KIR2DS3 /// KIR2DS4 /// KIR3DL3 /// KIR3DL3 /// KIR3DS1 (11738374_at) / RFU C1QL1 (11718748_at) / Fold change /veh C1QL1 (11718748_at) / RFU TMPRSS4 (11747572_a_at) / Fold change /veh TMPRSS4 (11747572_a_at) / RFU HAMP (11756126_x_at) / Fold change /veh HAMP (11756126_x_at) / RFU RNFT2 (11725882_a_at) / Fold change /veh RNFT2 (11725882_a_at) / RFU NR4A2 (11747474_a_at) / Fold change /veh NR4A2 (11747474_a_at) / RFU ABCC12 (11746883_a_at) / Fold change /veh ABCC12 (11746883_a_at) / RFU TMEM136 (11760407_x_at) / Fold change /veh TMEM136 (11760407_x_at) / RFU CLDN22 /// WWC2 (11732394_at) / Fold change /veh CLDN22 /// WWC2 (11732394_at) / RFU HLA-DPB1 (11760878_x_at) / Fold change /veh HLA-DPB1 (11760878_x_at) / RFU SPINT1 (11716480_a_at) / Fold change /veh SPINT1 (11716480_a_at) / RFU GAP43 (11754022_s_at) / Fold change /veh GAP43 (11754022_s_at) / RFU A4GNT (11735810_at) / Fold change /veh A4GNT (11735810_at) / RFU PRB3 (11715151_x_at) / Fold change /veh PRB3 (11715151_x_at) / RFU TUBB4B (11761932_at) / Fold change /veh TUBB4B (11761932_at) / RFU CAPN14 (11732068_a_at) / Fold change /veh CAPN14 (11732068_a_at) / RFU TMCC2 (11721928_a_at) / Fold change /veh TMCC2 (11721928_a_at) / RFU IRGQ (11745062_a_at) / Fold change /veh IRGQ (11745062_a_at) / RFU FAM174B (11720279_a_at) / Fold change /veh FAM174B (11720279_a_at) / RFU TMPRSS4 (11748680_a_at) / Fold change /veh TMPRSS4 (11748680_a_at) / RFU FAM212B (11763350_a_at) / Fold change /veh FAM212B (11763350_a_at) / RFU PLEKHG5 (11743358_a_at) / Fold change /veh PLEKHG5 (11743358_a_at) / RFU ZSCAN30 (11745921_a_at) / Fold change /veh ZSCAN30 (11745921_a_at) / RFU CMKLR1 (11741424_a_at) / Fold change /veh CMKLR1 (11741424_a_at) / RFU LOC101060620 /// MAPK8IP1 (11723275_at) / Fold change /veh LOC101060620 /// MAPK8IP1 (11723275_at) / RFU SPTSSB (11747773_x_at) / Fold change /veh SPTSSB (11747773_x_at) / RFU PRSS12 (11739890_at) / Fold change /veh PRSS12 (11739890_at) / RFU BIN1 (11741810_x_at) / Fold change /veh BIN1 (11741810_x_at) / RFU WNT11 (11732464_a_at) / Fold change /veh WNT11 (11732464_a_at) / RFU C10orf10 (11716521_a_at) / Fold change /veh C10orf10 (11716521_a_at) / RFU C5orf56 (11738089_at) / Fold change /veh C5orf56 (11738089_at) / RFU CYB561 (11721691_x_at) / Fold change /veh CYB561 (11721691_x_at) / RFU ANKRD19P (11752326_a_at) / Fold change /veh ANKRD19P (11752326_a_at) / RFU OR2T12 /// OR2T33 /// OR2T8 (11738714_s_at) / Fold change /veh OR2T12 /// OR2T33 /// OR2T8 (11738714_s_at) / RFU VCAN (11748164_a_at) / Fold change /veh VCAN (11748164_a_at) / RFU JSRP1 (11732532_at) / Fold change /veh JSRP1 (11732532_at) / RFU KRTAP10-11 (11738290_x_at) / Fold change /veh KRTAP10-11 (11738290_x_at) / RFU MYO3A (11730013_a_at) / Fold change /veh MYO3A (11730013_a_at) / RFU EBF3 (11725865_a_at) / Fold change /veh EBF3 (11725865_a_at) / RFU CAMK2N1 (11719241_x_at) / Fold change /veh CAMK2N1 (11719241_x_at) / RFU C5orf56 (11738088_a_at) / Fold change /veh C5orf56 (11738088_a_at) / RFU OLFML3 (11715873_a_at) / Fold change /veh OLFML3 (11715873_a_at) / RFU LOC100653217 /// NTM (11731650_a_at) / Fold change /veh LOC100653217 /// NTM (11731650_a_at) / RFU MAPK11 (11762145_a_at) / Fold change /veh MAPK11 (11762145_a_at) / RFU FIZ1 (11724087_x_at) / Fold change /veh FIZ1 (11724087_x_at) / RFU OASL (11726364_x_at) / Fold change /veh OASL (11726364_x_at) / RFU SOX15 (11748057_x_at) / Fold change /veh SOX15 (11748057_x_at) / RFU CD79A (11719716_a_at) / Fold change /veh CD79A (11719716_a_at) / RFU HIST1H1D (11736915_at) / Fold change /veh HIST1H1D (11736915_at) / RFU CASKIN2 (11723855_a_at) / Fold change /veh CASKIN2 (11723855_a_at) / RFU LOC730098 (11760151_x_at) / Fold change /veh LOC730098 (11760151_x_at) / RFU OR4N2 (11742367_at) / Fold change /veh OR4N2 (11742367_at) / RFU PRRT2 (11749266_a_at) / Fold change /veh PRRT2 (11749266_a_at) / RFU SNX32 (11753110_a_at) / Fold change /veh SNX32 (11753110_a_at) / RFU CDHR5 (11726645_a_at) / Fold change /veh CDHR5 (11726645_a_at) / RFU RCAN1 (11760418_a_at) / Fold change /veh RCAN1 (11760418_a_at) / RFU FAM167A (11723789_a_at) / Fold change /veh FAM167A (11723789_a_at) / RFU FAM26E (11764081_at) / Fold change /veh FAM26E (11764081_at) / RFU ISYNA1 (11749810_s_at) / Fold change /veh ISYNA1 (11749810_s_at) / RFU ACY1 (11761880_at) / Fold change /veh ACY1 (11761880_at) / RFU 11764098_at / Fold change /veh 11764098_at / RFU SAMD14 (11745864_x_at) / Fold change /veh SAMD14 (11745864_x_at) / RFU NPB (11741838_a_at) / Fold change /veh NPB (11741838_a_at) / RFU TMPRSS6 (11731388_a_at) / Fold change /veh TMPRSS6 (11731388_a_at) / RFU KRTAP10-2 (11738614_at) / Fold change /veh KRTAP10-2 (11738614_at) / RFU ARHGAP8 /// PRR5-ARHGAP8 (11727945_x_at) / Fold change /veh ARHGAP8 /// PRR5-ARHGAP8 (11727945_x_at) / RFU KRTAP5-7 /// NADSYN1 (11734609_at) / Fold change /veh KRTAP5-7 /// NADSYN1 (11734609_at) / RFU RASL12 (11751679_a_at) / Fold change /veh RASL12 (11751679_a_at) / RFU CDKN2B (11736163_a_at) / Fold change /veh CDKN2B (11736163_a_at) / RFU PRF1 (11729649_at) / Fold change /veh PRF1 (11729649_at) / RFU, ZNF638 /// ZNF638-IT1 / Fold change vs veh, ZNF638 /// ZNF638-IT1 / RFU, PANK3 / Fold change vs veh, PANK3 / RFU, SH3YL1 / Fold change vs veh, SH3YL1 / RFU, ZEB2 / Fold change vs veh, ZEB2 / RFU, NRIP1 / Fold change vs veh, NRIP1 / RFU, PTTG1IP / Fold change vs veh, PTTG1IP / RFU, CAPN2 / Fold change vs veh, CAPN2 / RFU, MED14 / Fold change vs veh, MED14 / RFU, SNORA58 / Fold change vs veh, SNORA58 / RFU, C1orf63 / Fold change vs veh, C1orf63 / RFU, LRRFIP1 / Fold change vs veh, LRRFIP1 / RFU, NDUFAF7 / Fold change vs veh, NDUFAF7 / RFU, SLC12A2 / Fold change vs veh, SLC12A2 / RFU, IBTK / Fold change vs veh, IBTK / RFU, ESF1 / Fold change vs veh, ESF1 / Fold change vs veh, TMEM50B / RFU, TAOK1 / Fold change vs veh, TAOK1 / RFU, ACBD3 / Fold change vs veh, ACBD3 / RFU, TMA16 / Fold change vs veh, TMA16 / RFU, RWDD3 / Fold change vs veh, RWDD3 / RFU, BCAT1 / Fold change vs veh, BCAT1 / RFU, EDEM3 / Fold change vs veh, EDEM3 / RFU, TMEM33 / Fold change vs veh, TMEM33 / RFU, WDR75 / Fold change vs veh, WDR75 / RFU, AHCTF1 / Fold change vs veh, AHCTF1 / RFU, TFRC / Fold change vs veh, TFRC / RFU, ZDHHC17 / Fold change vs veh, ZDHHC17 / RFU, NOM1 / Fold change vs veh, NOM1 / RFU, ARL8B / Fold change vs veh, ARL8B / RFU, ZBTB11 / Fold change vs veh, ZBTB11 / RFU, TAMM41 / Fold change vs veh, TAMM41 / RFU, KIAA1704 /// LOC100996395 / Fold change vs veh, KIAA1704 /// LOC100996395 / RFU, ING1 / Fold change vs veh, ING1 / RFU, TRMT61B / Fold change vs veh, TRMT61B / RFU, FUBP3 / Fold change vs veh, FUBP3 / RFU, TP53 / Fold change vs veh, TP53 / RFU, TNKS2 / Fold change vs veh, TNKS2 / RFU, ZFP14 / Fold change vs veh, ZFP14 / RFU, ACTR2 / Fold change vs veh, ACTR2 / RFU, PPP3R1 / Fold change vs veh, PPP3R1 / RFU, PIK3R1 / Fold change vs veh, PIK3R1 / RFU, HNRNPA1 / Fold change vs veh, HNRNPA1 / RFU, RNF170 / Fold change vs veh, RNF170 / RFU, ZNF28 / Fold change vs veh, ZNF28 / RFU, RNGTT / Fold change vs veh, RNGTT / RFU, OGT / Fold change vs veh, OGT / RFU, BRD1 / Fold change vs veh, BRD1 / RFU, MARS / Fold change vs veh, MARS / RFU, ZNF655 / Fold change vs veh, ZNF655 / RFU, FAHD1 / Fold change vs veh, FAHD1 / RFU, BDP1 / Fold change vs veh, BDP1 / RFU, LRRCC1 / Fold change vs veh, LRRCC1 / RFU, ARID1A / Fold change vs veh, ARID1A / RFU, ZNF146 / Fold change vs veh, ZNF146 / RFU, ZNF330 / Fold change vs veh, ZNF330 / RFU, GPN3 / Fold change vs veh, GPN3 / RFU, C9orf123 / Fold change vs veh, C9orf123 / RFU, N4BP2L2 / Fold change vs veh, N4BP2L2 / RFU, ARFIP1 / Fold change vs veh, ARFIP1 / RFU, FAM179B / Fold change vs veh, FAM179B / RFU, BCL10 / Fold change vs veh, BCL10 / RFU, UHRF1BP1L / Fold change vs veh, UHRF1BP1L / RFU, BET1 / Fold change vs veh, BET1 / RFU, CNOT2 / Fold change vs veh, CNOT2 / RFU, ZNF268 / Fold change vs veh, ZNF268 / Fold change vs veh, ZNF507 / RFU, DGCR2 / Fold change vs veh, DGCR2 / RFU, WDSUB1 / Fold change vs veh, WDSUB1 / Fold change vs veh, HSP90B1 /// MIR3652 / RFU, ADSS / Fold change vs veh, ADSS / RFU, GK / Fold change vs veh, GK / RFU, ZNF148 / Fold change vs veh, ZNF148 / RFU, TAF9 / Fold change vs veh, TAF9 / RFU, SLC1A5 / Fold change vs veh, SLC1A5 / RFU, SLMO2 / Fold change vs veh, SLMO2 / RFU, ABCC4 / Fold change vs veh, ABCC4 / RFU, LOC101060439 /// RAP1B / Fold change vs veh, LOC101060439 /// RAP1B / RFU, RFX7 / Fold change vs veh, RFX7 / RFU, GTPBP10 / Fold change vs veh, GTPBP10 / RFU, CNEP1R1 / Fold change vs veh, CNEP1R1 / RFU, BIVM-ERCC5 /// ERCC5 / Fold change vs veh, BIVM-ERCC5 /// ERCC5 / RFU, ILF3 / Fold change vs veh, ILF3 / RFU 11762660_at / Fold change /veh 11762660_at / RFU VCAN (11757783_s_at) / Fold change /veh VCAN (11757783_s_at) / RFU DDX43 (11728927_at) / Fold change /veh DDX43 (11728927_at) / RFU KRT8 (11758188_x_at) / Fold change /veh KRT8 (11758188_x_at) / RFU NKD1 (11759106_at) / Fold change /veh NKD1 (11759106_at) / RFU SRD5A1 (11742802_a_at) / Fold change /veh SRD5A1 (11742802_a_at) / RFU TPSAB1 /// TPSB2 (11721975_s_at) / Fold change /veh TPSAB1 /// TPSB2 (11721975_s_at) / RFU GSTM3 (11746129_a_at) / Fold change /veh GSTM3 (11746129_a_at) / RFU IL23R (11737362_x_at) / Fold change /veh IL23R (11737362_x_at) / RFU TMEM51 (11727254_a_at) / Fold change /veh TMEM51 (11727254_a_at) / RFU PIWIL2 (11732686_x_at) / Fold change /veh PIWIL2 (11732686_x_at) / RFU ORM1 (11744905_x_at) / Fold change /veh ORM1 (11744905_x_at) / RFU CCDC152 (11743942_at) / Fold change /veh CCDC152 (11743942_at) / RFU ECM1 (11717891_a_at) / Fold change /veh ECM1 (11717891_a_at) / RFU IL23R (11748794_a_at) / Fold change /veh IL23R (11748794_a_at) / RFU TNFAIP8L3 (11732012_x_at) / Fold change /veh TNFAIP8L3 (11732012_x_at) / RFU MBOAT4 (11741988_at) / Fold change /veh MBOAT4 (11741988_at) / RFU 11764193_at / Fold change /veh 11764193_at / RFU TMEM53 (11763286_at) / Fold change /veh TMEM53 (11763286_at) / RFU MAGEB2 (11727129_at) / Fold change /veh MAGEB2 (11727129_at) / RFU TMEM200A (11744735_a_at) / Fold change /veh TMEM200A (11744735_a_at) / RFU CCDC152 (11751479_a_at) / Fold change /veh CCDC152 (11751479_a_at) / RFU FAM211A (11726209_a_at) / Fold change /veh FAM211A (11726209_a_at) / RFU RGS16 (11746705_a_at) / Fold change /veh RGS16 (11746705_a_at) / RFU VCAN (11755009_s_at) / Fold change /veh VCAN (11755009_s_at) / RFU RHOB (11743442_s_at) / Fold change /veh RHOB (11743442_s_at) / RFU RGS16 (11720943_a_at) / Fold change /veh RGS16 (11720943_a_at) / RFU RGS16 (11720944_at) / Fold change /veh RGS16 (11720944_at) / RFU, VPS4B / Fold change vs veh, VPS4B / RFU, CREB1 / Fold change vs veh, CREB1 / RFU, DNAJC13 / Fold change vs veh, DNAJC13 / RFU, GNAQ / Fold change vs veh, GNAQ / RFU, CDK5R1 / Fold change vs veh, CDK5R1 / RFU, ZRANB3 / Fold change vs veh, ZRANB3 / RFU, CUL4A / Fold change vs veh, CUL4A / RFU, CCNY / Fold change vs veh, CCNY / RFU, UFL1 / Fold change vs veh, UFL1 / RFU, COG3 / Fold change vs veh, COG3 / RFU, DIAPH2 / Fold change vs veh, DIAPH2 / RFU, SKA2 / Fold change vs veh, SKA2 / RFU, AFF3 / Fold change vs veh, AFF3 / RFU, LMF1 / Fold change vs veh, LMF1 / RFU, IPO11 / Fold change vs veh, IPO11 / RFU, DFFB / Fold change vs veh, DFFB / RFU, FOXP1 / Fold change vs veh, FOXP1 / RFU, CARD8 / Fold change vs veh, CARD8 / RFU, STRN3 / Fold change vs veh, STRN3 / RFU, ADK / Fold change vs veh, ADK / RFU, RASSF2 / Fold change vs veh, RASSF2 / RFU, WIPF1 / Fold change vs veh, WIPF1 / RFU, LARP1B / Fold change vs veh, LARP1B / RFU, RASA1 / Fold change vs veh, RASA1 / RFU, RB1 / Fold change vs veh, RB1 / RFU, PPFIA1 / Fold change vs veh, PPFIA1 / RFU, MAT2A / Fold change vs veh, MAT2A / RFU, CCT5 / Fold change vs veh, CCT5 / RFU, WDR92 / Fold change vs veh, WDR92 / RFU, CUX1 / Fold change vs veh, CUX1 / RFU, TTC7A / Fold change vs veh, TTC7A / RFU, TMEM135 / Fold change vs veh, TMEM135 / RFU, DEPTOR / Fold change vs veh, DEPTOR / RFU, CPM / Fold change vs veh, CPM / RFU, DNAJB6 / Fold change vs veh, DNAJB6 / RFU, CACNA2D3 / Fold change vs veh, CACNA2D3 / RFU, DTX4 / Fold change vs veh, DTX4 / RFU, TFCP2 / Fold change vs veh, TFCP2 / RFU, GMCL1 /// GMCL1P1 / Fold change vs veh, GMCL1 /// GMCL1P1 / RFU, AEBP2 / Fold change vs veh, AEBP2 / RFU, SNHG1 /// SNORD22 /// SNORD25 /// SNORD26 /// SNORD27 /// SNORD28 /// SNORD29 /// SNORD31 / Fold change vs veh, SNHG1 /// SNORD22 /// SNORD25 /// SNORD26 /// SNORD27 /// SNORD28 /// SNORD29 /// SNORD31 / Fold change (Aza/veh), C12orf56 (ProbeSet 11735607_a_at) / Fold change (ACY-1035/veh), C12orf56 (ProbeSet 11735607_a_at) / Fold change (Aza/veh), FGFR1OP (ProbeSet 11751329_s_at) / Fold change (ACY-1035/veh), FGFR1OP (ProbeSet 11751329_s_at) / Fold change (Aza/veh), VPS36 (ProbeSet 11739960_a_at) / Fold change (ACY-1035/veh), VPS36 (ProbeSet 11739960_a_at) / RFU SYPL1 (11715823_x_at) / Fold change /veh SYPL1 (11715823_x_at) / RFU IGFBP7 (11715501_s_at) / Fold change /veh IGFBP7 (11715501_s_at) / RFU REEP3 (11722064_at) / Fold change /veh REEP3 (11722064_at) / RFU IGLL1 (11728026_x_at) / Fold change /veh IGLL1 (11728026_x_at): dose or concentration left out as unconfirmed
Settings: ProbeSet 11728271_at; LIST B

With `Nc1ccc(-c2cccs2)cc1NC(=O)c1ccc2c(c1)cc(C1CC1)n2CCN1CCOCC1` [ACY-1035] as the compound, how does the “Fold change vs veh, ZNF330” value read?
The value was 0.88.

From paper PMC5218480 (PLoS ONE, 2017)
